Read-outs that look alike come from different tables or passages of the source.
How the values were obtained:
[1] = biological target: T1, human orexin 1 receptors (Homo sapiens, UniProt O43613); experiment: Calcium accumulation in cells (FLIPR), hOx1R
T1 sequence (O43613 1-425): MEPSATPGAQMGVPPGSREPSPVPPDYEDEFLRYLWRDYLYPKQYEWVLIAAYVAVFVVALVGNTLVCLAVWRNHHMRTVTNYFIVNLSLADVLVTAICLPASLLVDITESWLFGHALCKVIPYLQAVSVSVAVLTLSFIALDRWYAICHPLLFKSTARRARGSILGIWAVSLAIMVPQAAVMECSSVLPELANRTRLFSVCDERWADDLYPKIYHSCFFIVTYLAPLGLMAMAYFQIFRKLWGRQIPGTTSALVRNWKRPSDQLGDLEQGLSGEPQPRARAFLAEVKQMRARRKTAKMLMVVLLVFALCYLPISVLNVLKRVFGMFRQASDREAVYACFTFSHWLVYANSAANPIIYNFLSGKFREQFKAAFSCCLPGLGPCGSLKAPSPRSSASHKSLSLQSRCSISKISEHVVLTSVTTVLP
Method: (§1) Cells expressing human orexin 1 or human orexin 2 receptors, were seeded at 8,000 cells/well in 384 well black-walled clear bottom, poly-D-lysine coated plates. After 24 h, the medium was removed and cells were washed once with phosphate buffered saline and serum-deprived overnight in assay buffer (130 mM NaCl, 5.4 mM KCl, 1.8 mM CaCl2, 0.8 mM MgSO4, 0.9 mM NaH2PO4, 25 mM glucose, 20 mM HEPES, pH 7.4) containing bovine serum albumin (1% w/v).
On the day of the experiment, the cells seeded in black plates were treated with assay buffer containing the Ca^2+ sensitive fluorescent dye Fluo4-AM (2 μM), and probenecid (0.1 mM). After 1 h plates were washed twice with, and resuspended in, assay buffer containing probenecid (0.1 mM) using a multi plate washer. The plates were placed into a FLIPR II (Fluorometric Imaging Plate Reader, Molecular Devices, Sunnyvale, Calif., USA) and baseline fluorescence (fluorescence light units, FLU) was measured (5 measurements, 2 S each; laser excitation 488 nm at 0.6-1 W, CCD camera exposure 0.4 s) before addition of buffer alone (basal) or containing test compounds (either compound of formula I alone, agonist alone or agonist in the presence of various concentrations of compounds of formula I). Fluorescence measurements were then continued every 1 S for 120 S followed by every 4 S for 240 S.
(§2) Compounds of formula I were tested usually in a concentration range from 10^−9 M to 10^−5M.
(§3) In the second round, performed one hour later (to allow for equilibration), Orexin A was tested either in the absence (calibration curves, Orexin A agonist controls) or in the presence of compounds of formula I to determine antagonism.
Inhibition data is expressed in Table 2 as Ki [μM], converted by the Cheng and Prusoff correction (Ki=IC50/1+(L/EC50)), where IC50 is the 50% inhibition value determined in concentration response inhibition curves, EC50 is the half maximal activation concentration determined for orexin A in concentration response curves and L is the concentration of orexin A used in inhibition experiments performed in with a submaximal concentration of orexin A in the presence of up to 8 increasing concentrations of compound of formula I. Inhibition data is also expressed in Table 2 as % inhibition value measured at a concentration of 10 μM of selected compounds of formula I.

[2] = biological target: T2, human orexin 2 receptors (Homo sapiens, UniProt O43614); experiment: Calcium accumulation in cells (FLIPR), hOx2R; format: cell-based; details: inhibition of orexin A induced calcium accumulation; Cheng and Prusoff correction
T2 construct: expressed in transfected cells
T2 sequence (O43614 1-444): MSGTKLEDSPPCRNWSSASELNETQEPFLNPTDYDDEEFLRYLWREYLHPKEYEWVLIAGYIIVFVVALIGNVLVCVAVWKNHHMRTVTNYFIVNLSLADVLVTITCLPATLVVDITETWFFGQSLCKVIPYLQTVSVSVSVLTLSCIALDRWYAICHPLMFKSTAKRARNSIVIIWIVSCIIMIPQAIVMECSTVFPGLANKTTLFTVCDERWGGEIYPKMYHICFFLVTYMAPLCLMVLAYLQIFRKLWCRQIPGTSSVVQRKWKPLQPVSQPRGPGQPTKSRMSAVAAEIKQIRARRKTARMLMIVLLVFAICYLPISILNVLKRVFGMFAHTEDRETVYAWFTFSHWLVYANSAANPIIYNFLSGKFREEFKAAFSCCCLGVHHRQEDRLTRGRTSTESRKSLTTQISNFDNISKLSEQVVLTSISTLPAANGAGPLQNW
Method: as §1
On the day of the experiment, the cells seeded in black plates were treated with assay buffer containing the Ca^2+ sensitive fluorescent dye Fluo4-AM (2 μM), and probenecid (0.1 mM). After 1 h plates were washed twice with, and resuspended in, assay buffer containing probenecid (0.1 mM) using a multi plate washer. […] Fluorescence measurements were then continued every 1 S for 120 S followed by every 4 S for 240 S.
as §2, §3

[3] = biological target: T2, human orexin 2 receptors; experiment: Radioligand binding assay ([3H]-SB649868 competition), hOx2R; details: competition with about 1 nM [3H]-SB649868, cell membranes
Method: For crude cell membrane preparations, cells (CHO, Chinese hamster ovary or HEK, human embryonic kidney) expressing human orexin 1 or human orexin 2 receptors, were washed with HEPES (10 mM, pH 7.5), scraped off the culture plates with the same buffer, and centrifuged at 4° C. for 5 min at 2500×g. The cell pellet was either stored at −80° C. or used directly. Before the experiments, cell membranes were re-suspended in binding assay buffer (10 mM HEPES, 0.5% (w/v) bovine serum albumin, pH 7.5) by homogenisation with a Polytron homogeniser at 50 Hz for 20 s.

[4] = biological target: T1, human orexin 1 receptors; experiment: Radioligand binding assay ([3H]-SB649868 competition), hOx1R; design: expressed in transfected cells; details: competition with about 1 nM [3H]-SB649868, cell membranes
Method: The cell pellet was either stored at −80° C. or used directly. Before the experiments, cell membranes were re-suspended in binding assay buffer (10 mM HEPES, 0.5% (w/v) bovine serum albumin, pH 7.5) by homogenisation with a Polytron homogeniser at 50 Hz for 20 s. Cell membranes were also used as made available by commercial providers.
Bound radioactivity was measured, and data were analysed with the program XLFIT or Graphpad Prism. Protein concentration was determined according to the Bradford/BioRad Protein Assay Kit.
In competition experiments, cell homogenates (150 μl) were incubated in assay buffer (10 mM HEPES, pH 7.5, 0.5% (w/v) bovine serum albumin, 5 mM MgCl2, 1 mM CaCl2, and tween 0.05%) for 1 h at room temperature with about 1 nM of the radioligand [^3H]-SB649868, 66 Ci/mmole, 50 μl), and with various concentrations of compounds of the invention (50 μl) in triplicates; non-specific binding was determined in the presence of almorexant (10 μM). Reactions were terminated by vacuum filtration, 3 washes of ice cold wash buffer (Tris-HCl pH 7.4/10 mM, with NaCl 154 mM). Competition data is expressed in Table 2 as Kd [μM].

[5] = read-out: FLIPR hOx1R Ki, inhibition of orexin A induced calcium accumulation, Cheng and Prusoff correction

SMILES: Cc1cc(C)nc(N2CCC3(CCCN(Cc4ccccc4-c4nc(C)no4)C3=O)CC2)n1 [Example 1, 9-(4,6-dimethylpyrimidin-2-yl)-2-(2-(3-methyl-1,2,4-oxadiazol-5-yl)benzyl)-2,9-diazaspiro[5.5]undecan-1-one]
- Ki [1, 5]: 1620 nM
- Ki [2]: 7 nM

SMILES: COc1cc(-c2nn(C)nc2CN2CCCC3(CCN(c4nc(C)cc(C)n4)CC3)C2=O)ccn1 [Example 122, 9-(4,6-dimethylpyrimidin-2-yl)-2-((5-(2-methoxypyridin-4-yl)-2-methyl-2H-1,2,3-triazol-4-yl)methyl)-2,9-diazaspiro[5.5]undecan-1-one]
- Kd [3]: 14 nM
- Kd [4]: 130 nM
- Ki [1]: 176 nM
- Ki [2]: 1.4 nM

SMILES: COC(=O)c1ccc2[nH]cc(CN3CCCC4(CCN(c5nc(C)cc(C)n5)CC4)C3=O)c2c1 [Example 115, Methyl 3-((9-(4,6-dimethylpyrimidin-2-yl)-1-oxo-2,9-diazaspiro[5.5]undecan-2-yl)methyl)-1H-indole-5-carboxylate]
- Ki [1, 5]: 21 nM
- Ki [2]: 0.7 nM

SMILES: COc1cncc(N2CCC3(CCCN(Cc4c[nH]c5ccccc45)C3=O)CC2)n1 [Example 82, 2-((1H-indol-3-yl)methyl)-9-(6-methoxypyrazin-2-yl)-2,9-diazaspiro[5.5]undecan-1-one]
- Kd [3]: 3160 nM
- Kd [4]: > 10000 nM
- Ki [1]: 856 nM
- Ki [2]: 57 nM

SMILES: Cc1cc(C#N)nc(N2CCC3(CCCN(Cc4ccccc4-n4nccn4)C3=O)CC2)n1 [Example 25, 2-(2-(2-(2H-1,2,3-triazol-2-yl)benzyl)-1-oxo-2,9-diazaspiro[5.5]undecan-9-yl)-6-methylpyrimidine-4-carbonitrile]
- Kd [3]: 389 nM
- Kd [4]: > 10000 nM
- Ki [1]: 3700 nM
- Ki [2]: 68 nM

SMILES: O=C1N(Cc2cccc3c2OCCO3)CCCC12CCN(c1cncc(Cl)n1)CC2 [Example 21, 9-(6-chloropyrazin-2-yl)-2-((2,3-dihydrobenzo[b][1,4]dioxin-5-yl)methyl)-2,9-diazaspiro[5.5]undecan-1-one]
- inhibition at 10 µM ([1]; read-out: FLIPR hOx1R % inhibition value): 26%
- Ki [2]: 247 nM

SMILES: COc1ccnc(N2CCC3(CCCN(Cc4c[nH]c5ccccc45)C3=O)CC2)n1 [Example 13, 2-((1H-indol-3-yl)methyl)-9-(4-methoxypyrimidin-2-yl)-2,9-diazaspiro[5.5]undecan-1-one]
- Ki [2]: 14 nM

— patent publication US20130281463A1, “DIAZA-SPIRO[5.5]UNDECANES USEFUL AS OREXIN RECEPTOR ANTAGONISTS” (NOVARTIS AG, priority 2010, published 2013)
